Measurements as given in ChEMBL document CHEMBL5465560, “Selectivity Literature for EUbOPEN Chemogenomic Library” (2024).
Numbering of substitutions follows the chain as printed.

Columns and labels:
Details in all cases: at 10 µM
[1] = molecular target: Receptor-type tyrosine-protein kinase FLT3 (Homo sapiens) (UniProt P36888); assay: (§1) Selectivity interaction (KinomeScan (DiscoverX)) EUB0000618a FLT3
[2] = tested on: T1, Receptor-type tyrosine-protein kinase FLT3 (Homo sapiens), P36888 [D835H]; assay: as §1
T1 sequence (whole entry): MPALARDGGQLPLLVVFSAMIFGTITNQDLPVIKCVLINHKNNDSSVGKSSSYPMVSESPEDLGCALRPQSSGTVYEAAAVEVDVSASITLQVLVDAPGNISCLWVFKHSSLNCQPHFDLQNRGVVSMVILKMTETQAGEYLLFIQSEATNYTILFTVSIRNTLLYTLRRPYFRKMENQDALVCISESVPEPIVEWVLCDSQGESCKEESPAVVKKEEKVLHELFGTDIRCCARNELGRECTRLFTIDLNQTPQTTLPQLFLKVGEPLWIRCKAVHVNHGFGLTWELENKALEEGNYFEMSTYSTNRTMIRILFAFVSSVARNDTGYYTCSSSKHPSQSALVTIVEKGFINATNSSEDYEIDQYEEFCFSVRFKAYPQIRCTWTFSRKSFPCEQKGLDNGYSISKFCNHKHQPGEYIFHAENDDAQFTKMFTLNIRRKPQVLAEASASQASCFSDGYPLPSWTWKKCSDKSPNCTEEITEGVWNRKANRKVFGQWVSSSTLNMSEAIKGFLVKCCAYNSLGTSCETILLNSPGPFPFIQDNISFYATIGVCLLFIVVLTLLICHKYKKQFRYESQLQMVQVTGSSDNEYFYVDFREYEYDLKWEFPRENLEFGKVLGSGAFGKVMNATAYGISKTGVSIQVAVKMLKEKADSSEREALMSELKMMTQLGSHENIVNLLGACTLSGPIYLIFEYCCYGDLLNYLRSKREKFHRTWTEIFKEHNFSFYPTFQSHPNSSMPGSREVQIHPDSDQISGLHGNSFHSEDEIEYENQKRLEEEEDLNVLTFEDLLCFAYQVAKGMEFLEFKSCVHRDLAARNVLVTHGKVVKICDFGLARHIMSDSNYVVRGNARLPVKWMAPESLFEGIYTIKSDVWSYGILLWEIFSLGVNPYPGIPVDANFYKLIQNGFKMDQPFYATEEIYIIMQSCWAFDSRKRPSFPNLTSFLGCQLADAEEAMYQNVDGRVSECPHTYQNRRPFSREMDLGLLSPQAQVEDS

[3] = tested on: T2, Receptor-type tyrosine-protein kinase FLT3 (Homo sapiens), P36888 [K663Q]; assay: as §1
T2 sequence (whole entry): T1 sequence (whole entry) with K663Q, H835D

[4] = molecular target: T3, Serine/threonine-protein kinase Nek5 (Homo sapiens) (UniProt Q6P3R8); assay: Selectivity interaction (KinomeScan (DiscoverX)) EUB0000655a NEK5
T3 sequence (whole entry): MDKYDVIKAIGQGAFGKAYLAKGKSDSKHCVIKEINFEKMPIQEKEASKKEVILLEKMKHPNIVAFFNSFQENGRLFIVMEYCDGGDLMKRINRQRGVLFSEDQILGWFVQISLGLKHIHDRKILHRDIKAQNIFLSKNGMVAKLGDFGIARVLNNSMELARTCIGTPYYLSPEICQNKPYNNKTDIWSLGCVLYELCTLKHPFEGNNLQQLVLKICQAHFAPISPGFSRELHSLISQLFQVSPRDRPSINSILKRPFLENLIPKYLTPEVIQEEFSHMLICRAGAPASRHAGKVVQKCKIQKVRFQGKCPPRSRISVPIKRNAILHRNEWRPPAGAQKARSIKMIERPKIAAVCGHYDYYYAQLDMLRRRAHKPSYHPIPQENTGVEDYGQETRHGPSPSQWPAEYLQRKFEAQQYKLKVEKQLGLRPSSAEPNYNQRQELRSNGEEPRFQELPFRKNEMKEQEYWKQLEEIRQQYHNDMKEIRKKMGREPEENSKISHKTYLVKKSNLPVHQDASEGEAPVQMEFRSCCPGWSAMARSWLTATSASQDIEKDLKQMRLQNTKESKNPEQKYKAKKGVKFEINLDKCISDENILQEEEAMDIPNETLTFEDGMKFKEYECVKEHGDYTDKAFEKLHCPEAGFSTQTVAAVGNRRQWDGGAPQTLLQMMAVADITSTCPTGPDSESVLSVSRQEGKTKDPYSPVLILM

| SMILES | % of control [1] | % of control [2] | % of control [3] | % of control [4] |
| --- | --- | --- | --- | --- |
| O[C@H]1CC[C@H](Nc2ncc3nc(Nc4c(F)cc(F)cc4F)n([C@H]4CCOC4)c3n2)CC1 | 97% | 67% | 100% |  |
| CN(C)CCOc1ccc(-c2nc(-c3ccncc3)c(-c3ccc4c(c3)CC/C4=N\O)[nH]2)cc1 |  |  |  | 74% |
